Laboratory results from patent US8669292B2, “Therapeutic formulation” (Orion Therapeutics, LLC, priority 2005, dated 2014).
In brackets after ≈: the same amount, converted by molar mass. Like-named read-outs stand apart in the source and are kept apart here. Blank lines part the entries; values can stand above or below the compound they belong to.

Experiments:
[1] = test system: HCT-116 human colon cancer cells; assay: IC50 assay (concentration-cell number study); format: cell-based
Method: Concentration-cell number studies (IC50 assay) were carried out utilizing 12 separate compositions (numbered 1-12 below) against 13 different cancer cell lines (see Table 6). […] On day 3, cells are exposed to different concentrations of the drug. Flasks are incubated for 120 h (5 d) in a 5% CO2 incubator at 37° C. and the cells harvested with trypsin, washed once with Hanks Balanced Salt Solution (HBSS) and re-suspended in HBSS containing 0.08% Trypan Blue. Both viable and dead cells are counted using a hemocytometer. Viable cell numbers are normalized to an untreated control and plotted as a function of drug concentration. The IC50 value is determined using Prism 4.0.

H125 Lung Cancer = assay: IC50 assay (concentration-cell number study); format: cell-based
Method: (§2) These cells are grown in 5 ml culture medium (RPMI-1640+15% Bovine Calf serum containing 1% penicillin-streptomycin, and 1% Glutamine) at 37° C. and 5% CO2 at a starting concentration of 5×10^4 cells/T25 flask. On day 3, cells are exposed to different concentrations of the drug. Flasks are incubated for 120 h (5 d) in a 5% CO2 incubator at 37° C. and the cells harvested with trypsin, washed once with Hanks Balanced Salt Solution (HBSS) and re-suspended in HBSS containing 0.08% Trypan Blue. Both viable and dead cells are counted using a hemocytometer. Viable cell numbers are normalized to an untreated control and plotted as a function of drug concentration. The IC50 value is determined using Prism 4.0.
(§3) Cell Lines utilized in IC50 Assays: HCT-116 human colon cancer cells, H125 Lung Cancer, MCF-7, Breast Cancer, MDA-235 Breast Cancer, LNCaP Prostate Cancer, OVAR-5 Ovarian Cancer, U251N Brain Cancer Sarcoma 180, Panc 01Pancreatic Cancer, CCRF-CEM Leukemia, HEP-G2 Liver Cancer, L1210 Leukemia, Colon 38 Colon Cancer.

[2] = in vivo; cited from earlier work
LNCaP Prostate Cancer = assay: IC50 assay (concentration-cell number study); format: cell-based; conditions: for IC50: 120 h exposure
Method: (§4) Concentration-cell number studies (IC50 assay) were carried out utilizing 12 separate compositions (numbered 1-12 below) against 13 different cancer cell lines (see Table 6). These cells are grown in 5 ml culture medium (RPMI-1640+15% Bovine Calf serum containing 1% penicillin-streptomycin, and 1% Glutamine) at 37° C. and 5% CO2 at a starting concentration of 5×10^4 cells/T25 flask. On day 3, cells are exposed to different concentrations of the drug. Flasks are incubated for 120 h (5 d) in a 5% CO2 incubator at 37° C. and the cells harvested with trypsin, washed once with Hanks Balanced Salt Solution (HBSS) and re-suspended in HBSS containing 0.08% Trypan Blue. Both viable and dead cells are counted using a hemocytometer. Viable cell numbers are normalized to an untreated control and plotted as a function of drug concentration. The IC50 value is determined using Prism 4.0.

L1210 Leukemia = assay: IC50 assay (concentration-cell number study); format: cell-based; conditions: for IC50: 120 h exposure
Method: as §4

[3] = SORAC (Brunswick Test # A106); format: biochemical; conditions: for SOD SCORE: Cantron oral liquid scores converted from unitsSODeq/L to unitsSODeq/g
Method: Peroxyl radical scores are measured in the ORAC test (Oxygen Radical Absorption Capacity). Hydroxyl Radicals are tested in the HORAC test (Hydroxyl Radical Absorption Capacity). Peroxynitrite Radicals are tested in the NORAC test (Peroxynitrite Radical Absorption Capacity). Superoxide Radicals are measured in the SOD test (Superoxide Radical Absorption Capacity). Applicant's compounds and compositions were tested by the SORAC test (Brunswick test #106), which measures the activity of a given antioxidant against Superoxide radicals. The tests were conducted based on the method of Zhao et al (1999) Journal of Agricultural and Food Chemistry, (1999), 47: 2537-2543. The calibration standard was SOD and was expressed as a unit SOD equivalent per liter (unitsSODeq/L) for liquid formulations and unit SOD equivalent per gram (unitsSODeq/g) for dry powders.

Colon 38 Colon Cancer = assay: IC50 assay (concentration-cell number study); format: cell-based; conditions: for IC50: 120 h exposure
Method: as §2, §3

MDA-235 Breast Cancer = assay: IC50 assay (concentration-cell number study); format: cell-based; conditions: for IC50: 120 h exposure
Method: as §4

[4] = ORAC lipo (Brunswick Test # A102); format: biochemical; conditions: for ORAC lipo SCORE: Cantron oral liquid scores converted from TE/L to TE/g
Method: (§1) Peroxyl radical scores are measured in the ORAC test (Oxygen Radical Absorption Capacity). Hydroxyl Radicals are tested in the HORAC test (Hydroxyl Radical Absorption Capacity). Peroxynitrite Radicals are tested in the NORAC test (Peroxynitrite Radical Absorption Capacity). Superoxide Radicals are measured in the SOD test (Superoxide Radical Absorption Capacity). The ORAC test measures the antioxidant activity against peroxyl radicals by determining how many peroxyl free radicals can be absorbed by a given antioxidant as compared to the vitamin E analog-Trolox. The result is expressed as micromoles of Trolox equivalent per liter (TE/L) for liquid formulations and Trolox equivalent per gram (TE/g) for dry powders. Brunswick tested the Applicant's compounds for antioxidant activity against both hydrophilic and lipophilic peroxyl radicals as expressed in the ORAC total (see table 7).

HEP-G2 Liver Cancer = assay: IC50 assay (concentration-cell number study); format: cell-based
Method: as §4

OVAR-5 Ovarian Cancer = assay: IC50 assay (concentration-cell number study); format: cell-based; conditions: for IC50: 120 h exposure
Method: as §4

[5] = HORAC (Brunswick Test # A104); format: biochemical; conditions: for HORAC SCORE: Cantron oral liquid scores converted from CAE/L to CAE/g
Method: Peroxyl radical scores are measured in the ORAC test (Oxygen Radical Absorption Capacity). Hydroxyl Radicals are tested in the HORAC test (Hydroxyl Radical Absorption Capacity). Peroxynitrite Radicals are tested in the NORAC test (Peroxynitrite Radical Absorption Capacity). Superoxide Radicals are measured in the SOD test (Superoxide Radical Absorption Capacity). […] The result is expressed as micromoles of caffeic acid equivalent per liter (CAE/L) for liquid formulations and caffeic acid equivalent per gram (CAE/g) for dry powders.

[6] = test system: 13 different cancer cell lines; assay: IC50 assays, average or range over all cell lines; format: cell-based
Method: as §2, §3

Sarcoma 180 = assay: IC50 assay (concentration-cell number study); format: cell-based; conditions: for IC50: 120 h exposure
Method: as §4

[7] = ORAC total (Brunswick Test # A103); format: biochemical; conditions: for TOTAL ORAC SCORE: Cantron oral liquid scores converted from TE/L to TE/g
Method: as §1

MCF-7 Breast Cancer = assay: IC50 assay (concentration-cell number study); format: cell-based
Method: as §4

U251N Brain Cancer = assay: IC50 assay (concentration-cell number study); format: cell-based; conditions: for IC50: 120 h exposure
Method: as §4

[8] = ORAC hydro (Brunswick Test # A101); format: biochemical; conditions: for ORAC hydro SCORE: Cantron oral liquid scores converted from TE/L to TE/g
Method: as §1

[9] = NORAC (Brunswick Test # A105); format: biochemical; conditions: for NORAC SCORE: Cantron oral liquid scores converted from TE/L to TE/g
Method: Peroxyl radical scores are measured in the ORAC test (Oxygen Radical Absorption Capacity). Hydroxyl Radicals are tested in the HORAC test (Hydroxyl Radical Absorption Capacity). Peroxynitrite Radicals are tested in the NORAC test (Peroxynitrite Radical Absorption Capacity). Superoxide Radicals are measured in the SOD test (Superoxide Radical Absorption Capacity). Applicant's compounds and compositions were tested by the NORAC test (Brunswick test # A 105), which measures the activity of a given antioxidant against peroxynitrite radicals. NORAC tests were based on the method of Chung H. et al (2001) Journal Agricultural of Food Chemistry, 49: 3614-3621. Scores are expressed in micromoles of trolox equivalent per liter (TE/L) for liquid formulations and Trolox equivalent per gram (TE/g) for dry powders.

CCRF-CEM Leukemia = assay: IC50 assay (concentration-cell number study); format: cell-based; conditions: for IC50: 120 h exposure
Method: as §4

[10] = test system: Panc 01 Pancreatic Cancer; assay: IC50 assay (concentration-cell number study); format: cell-based; conditions: for IC50: 120 h exposure
Method: as §4

[11] = test system: HCT-116 human colon cancer cells; assay: Clonogenic dose response; format: cell-based; conditions: for clonogenic survival / effect on clonogenic survival: 24 h exposure; for clonogenic survival: 10 micrograms/ml; for effect on clonogenic survival: concentrations up to 1 microgram/ml; for effect on the survival of the tumor cells: concentration of up to 10 micrograms/ml, exposure time not given; for concentration with cell survival at the 0.1 level: extended exposure 168 h
Method: Clonogenic survival of the cells was measured by a standard tissue culture procedure.
Asimicin was prepared in ethanol. Clonogenic survival of the cells was measured by a standard tissue culture procedure.

[12] = Homo sapiens, HCT-116, 120 h, HCT-116, 120 h exposure, read-out: IC50

Compound: Oc1ccccc1O [Composition 2, Catechol]
IC50 times lower than Cantron (times more efficacious than Cantron) (H125 Lung Cancer): 14.29 times lower than | IC50 (H125 Lung Cancer; Homo sapiens, NCI-H125, 120 h exposure, read-out: IC50): 2.1 mg/L (≈ 19.1 µM) | known side effects in animal tests [2]: stomach irritation and hyperplasia | IC50 times lower than Cantron (times more efficacious than Cantron) (LNCaP Prostate Cancer): 18.82 times lower than | IC50 (LNCaP Prostate Cancer; Homo sapiens, read-out: IC50): 1.7 mg/L (≈ 15.4 µM) | IC50 times lower than Cantron (times more efficacious than Cantron) (L1210 Leukemia): 10.52 times lower than | IC50 (L1210 Leukemia; Mus musculus, read-out: IC50): 1.9 mg/L (≈ 17.3 µM) | SOD SCORE [3]: 159,000 unitsSODeq/g | more effective than the improved Cantron ASV ([3]; Superoxide score ratio): is still 441.66% more effective | IC50 times lower than Cantron (times more efficacious than Cantron) (Colon 38 Colon Cancer): 11.36 times lower than | IC50 (Colon 38 Colon Cancer; read-out: IC50): 2.2 mg/L (≈ 20 µM) | IC50 times lower than Cantron (times more efficacious than Cantron) ([1]; HCT-116): 7.04 times lower than | calculated cytotoxicity value of catechol ([1]; HCT-116, Cantron score 19.7 multiplied by 12.7% catechol by weight): 2.5019 µg/mL | IC50 [1, 12]: 2.8 mg/L (≈ 25.4 µM) | IC50 ([1]; Homo sapiens, HCT-116, read-out: calculated cytotoxicity value of catechol, HCT-116, Cantron score 19.7 multiplied by 12.7% catechol by weight): 2.5 mg/L (≈ 22.7 µM) | IC50 times lower than Cantron (times more efficacious than Cantron) (MDA-235 Breast Cancer): 9.33 times lower than | IC50 (MDA-235 Breast Cancer; read-out: IC50): 3 mg/L (≈ 27.2 µM) | ORAC lipo SCORE [4]: 24,682 micromoles TE/g | more effective than the improved Cantron ASV ([4]; Peroxyl-lipo score ratio): is still 4086.4% more effective | IC50 times lower than Cantron (times more efficacious than Cantron) (HEP-G2 Liver Cancer): 4.61 times lower than | IC50 (HEP-G2 Liver Cancer; Homo sapiens, HepG2, 120 h exposure, read-out: IC50): 2.6 mg/L (≈ 23.6 µM) | IC50 times lower than Cantron (times more efficacious than Cantron) (OVAR-5 Ovarian Cancer): 3.69 times lower than | IC50 (OVAR-5 Ovarian Cancer; read-out: IC50): 3.2 mg/L (≈ 29.1 µM) | HORAC SCORE [5]: 5,572 micromoles CAE/g | more effective than Cantron NM ([5]; Hydroxyl score ratio): 2,079% more effective than | IC50 ([6]; average of 13 cell lines): 2.3 mg/L (≈ 20.9 µM) | times more efficacious than Cantron ([6]; average over the cell lines tested): 10.35 times | IC50 times lower than Cantron (times more efficacious than Cantron) (Sarcoma 180): 12.11 times lower than | IC50 (Sarcoma 180; Mus musculus, read-out: IC50): 1.9 mg/L (≈ 17.3 µM) | TOTAL ORAC SCORE [7]: 73,161 micromoles TE/g | more effective than Cantron NM ([7]; Peroxyl-total score ratio): The Catechol composition is 1702% | IC50 times lower than Cantron (times more efficacious than Cantron) (MCF-7 Breast Cancer): 11.36 times lower than | IC50 (MCF-7 Breast Cancer; 120 h exposure): to 2.2 μg/ml). It is | IC50 (MCF-7 Breast Cancer; Homo sapiens, MCF7, 120 h exposure, read-out: IC50): 2.2 mg/L (≈ 20 µM) | IC50 times lower than Cantron (times more efficacious than Cantron) (U251N Brain Cancer): 10.45 times lower than | IC50 (U251N Brain Cancer; read-out: IC50): 2.2 mg/L (≈ 20 µM) | ORAC hydro SCORE [8]: 48,479 micromoles TE/g | more effective than the improved Cantron ASV ([8]; Peroxyl-hydro score ratio): is still 507% more effective than | NORAC SCORE [9]: 2,593 micromoles TE/g | more effective than the improved Cantron ASV ([9]; Peroxynitrite score ratio): is still 409.63% more effective | IC50 times lower than Cantron (times more efficacious than Cantron) (CCRF-CEM Leukemia): 6.19 times lower than | IC50 (CCRF-CEM Leukemia; Homo sapiens, read-out: IC50): 2.1 mg/L (≈ 19.1 µM) | IC50 times lower than Cantron (times more efficacious than Cantron) [10]: 14.71 times lower than | IC50 ([10]; read-out: IC50): 1.7 mg/L (≈ 15.4 µM) | clonogenic survival [11]: 0.1 | effect on clonogenic survival [11]: no effect | effect on the survival of the tumor cells [11]: no effect | concentration with cell survival at the 0.1 level [11]: 200 picograms/ml

Compound: Asimicin
clonogenic survival [11]: 0.1 | effect on clonogenic survival [11]: no effect | fold greater cell killing than found with the 24 h exposure ([11]; 168 h versus 24 h exposure): ~100.000 fold | effect on the survival of the tumor cells [11]: no effect | concentration with cell survival at the 0.1 level [11]: 200 picograms/ml

Compound: O=c1c(O)c(O)c(=O)c1=O [Croconic Acid]
SOD SCORE [3]: 0 unitsSODeq/g | ORAC lipo SCORE [4]: 0 micromoles TE/g | HORAC SCORE [5]: 19 micromoles CAE/g | TOTAL ORAC SCORE [7]: 1,106 micromoles TE/g | ORAC hydro SCORE [8]: 1,106 micromoles TE/g | NORAC SCORE [9]: 1 micromoles TE/g

Continued, in another order:

IC50 [1, 12]: 0.15 mg/L (≈ 1.15 µM)
Compound: O=c1[nH]cc(F)c(=O)[nH]1 [5-Fluorouracil, reference compound]

IC50 [1, 12]: 0.0002 mg/L (≈ 0.000234 µM)
Compound: CC(=O)O[C@H]1C(=O)[C@@]2(C)[C@H]([C@H](OC(=O)c3ccccc3)[C@]3(O)C[C@H](OC(=O)[C@H](O)[C@@H](NC(=O)c4ccccc4)c4ccccc4)C(C)=C1C3(C)C)[C@]1(OC(C)=O)CO[C@@H]1C[C@@H]2O [Taxol, reference compound]

IC50 (H125 Lung Cancer; 120 h exposure): 53 mg/L (≈ 308 µM) | IC50 (LNCaP Prostate Cancer): 54 mg/L (≈ 314 µM) | IC50 (L1210 Leukemia): 49 mg/L (≈ 285 µM) | IC50 (Colon 38 Colon Cancer): 19 mg/L (≈ 110 µM) | IC50 ([1]; HCT-116, 120 h exposure): 17.0 mg/L (≈ 98.8 µM) | IC50 ([1]; HCT-116, 120 h exposure, listed as 4): 17 mg/L (≈ 98.8 µM) | IC50 (MDA-235 Breast Cancer): 5.8 mg/L (≈ 33.7 µM) | IC50 (HEP-G2 Liver Cancer; 120 h exposure): 8.5 mg/L (≈ 49.4 µM) | IC50 (OVAR-5 Ovarian Cancer): 28 mg/L (≈ 163 µM) | IC50 AVG. ([6]; average of 13 cell lines): 25 mg/L (≈ 145 µM) | IC50 (Sarcoma 180): 51 mg/L (≈ 296 µM) | IC50 (MCF-7 Breast Cancer; 120 h exposure): 5.9 mg/L (≈ 34.3 µM) | IC50 (U251N Brain Cancer): 8.0 mg/L (≈ 46.5 µM) | IC50 (CCRF-CEM Leukemia): 7.0 mg/L (≈ 40.7 µM) | IC50 [10]: 24 mg/L (≈ 139 µM)
Compound: O=C1C(O)=C(O)C(=O)C(O)=C1O [Composition 4, tetrahydroxy-1,4-quinone]
SOD SCORE [3]: 145,000 unitsSODeq/g | ORAC lipo SCORE [4]: 1 micromoles TE/g | HORAC SCORE [5]: 129 micromoles CAE/g | TOTAL ORAC SCORE [7]: 1,508 micromoles TE/g | ORAC hydro SCORE [8]: 1,507 micromoles TE/g | NORAC SCORE [9]: 438 micromoles TE/g
